Assay results from patent US4847302A, “Use of certain compounds in livestock food as growth promotants for better feed utilization and improved carcass composition” (Merck & Co., Inc., priority 1988, dated 1989).
Read-outs that look alike come from different tables or passages of the source.

Assays:
[1] = system: Isolated Ovine Adipocytes; test: Stimulation of lipolysis (glycerol production) in isolated ovine adipocytes; assay type: cell-based, sheep; details: for activation at 0.05 µM / activation at 0.01 µM: Ovis aries, Adipocyte, 2 h
Experimental: (§1) Fat was collected from freshly killed animals as follows: epididymal and perirenal fat from 150 to 200 g male rates; perirenal fat from 20 to 25 kg whether lambs, and perirenal and omental fat from 35 to 50 kg gilts. Immediately after collection, fat was placed in a siliconized beaker (all glassware was siliconized) containing Krebs-Ringer bicarbonate solution (KRB; pH 7.4) at 37° C. Fat was transferred to a clean beaker and finely chopped with scissors. Chopped fat was then used as such (whole adipose preparation) or treated with collagenase (isolated adipocytes).
(§2) Chopped fat was placed in a shaker containing 70 ml cell dispersion medium (CDM; 5 mM glucose, 0.1% collagenase, 4% bovine serum albumin (BSA), in KRB) and incubated at 37° C. for 1 hour with gentle shaking. Fat was then filtered to remove clumps and washed 4 times with washing medium (WM; 2.5 mM glucose, 1% BSA, in KRB) and 1 time with final suspension medium (FSM; 2.5 mM glucose, 2% essentially fatty acid free BSA, in KRB). Isolated adipocytes were then resuspended in the required amount of FSM (1 ml/flask, 3 flasks/treatment).
(§3) Whole adipose tissue from the rat (0.3 ml) or isolated adipocytes from sheep or swine (1 ml) were placed in plastic scintillation vials containing FSM (1.7 or 1 ml, respectively) and test compounds, and incubated at 37° C. for 2 hours. […] Isoproterenol, at the same concentrations, was used as a positive control. After incubation, media was removed and assayed for glycerol by a fluorometric modification of the method of Wieland (1974. Glycerol UV-method. pp. 1404. In: Bergmeyer (Ed.) Methods of Enzymatic Analysis. Verlag Chemie Weinham, Academic Press, New York).

[2] = Growth, feed conversion and carcass composition of broilers raised in floor pens for 7 weeks; assay type: in vivo; details: 7 weeks
Experimental: Compound V (bitolterol) was compared to clenbuterol for effects on growth, feed conversion and carcass composition of broilers raised in floor pens for 7 weeks. […] Bitolterol at the highest dose improved rate of gain 2.6% (P 0.01), feed conversion 3.8% (P 0.05) and carcass protein 4.9% (P 0.10).
Clenbuterol at 0.5 ppm in the diet was administered for 7 weeks to one group and only during the last 4 weeks to another group. […] Clenbuterol given for 7 weeks improved feed conversion 3.5% (P 0.05) and appeared to improve (not significant) rate of gain 0.4%, carcass weight 0.7% and carcass protein 4.0% and to decrease (not significant) carcass fat 7.1%.

[3] = Toxicity (general statement)
[4] = system: Rat Adipose Tissue; test: Stimulation of lipolysis (glycerol production) in chopped rat adipose tissue; assay type: cell-based; details: Rattus norvegicus, 2 h
Experimental: as §1
as §3, with “York). […]” for “York).”

[5] = system: Isolated Swine Adipocytes; test: Stimulation of lipolysis (glycerol production) in isolated swine adipocytes; assay type: cell-based; details: Sus scrofa, Adipocyte, 2 h
Experimental: as §1, §2, §3

[6] = Growth promoting activity / feed utilization in livestock (general statements); assay type: in vivo
[7] = system: Isolated Chicken Hepatocytes; test: Inhibition of lipogenesis (14C acetate incorporation) in isolated chicken hepatocytes; assay type: cell-based; details: for inhibition at 0.01 µM / inhibition at 0.05 µM / inhibition at 0.25 µM: Gallus gallus, Hepatocyte, 2 h, Test 1, read-out: percent change compared to control, 14C acetate incorporation in fatty acids; for antilipogenic activity relative to clenbuterol / antilipogenic activity relative to isoproterenol: chicken hepatocytes
Experimental: Determination of anti-lipogenic activity in hepatocytes
Hepatocytes were isolated from chicken liver using the procedure for adipocytes and incubated for 2 hours at 37° C. in the presence of ^14 C acetate and test compounds. […] Isoproterenol, at the same concentrations, was used as a positive control. After incubation, 8 ml Doles reagent (isopropanol:hexane:H2 SO4, 40:10:1) was added and incubation vials were shaken at room temperature for 30 minutes. Vial contents were poured into 50 ml screw-cap tubes. Vials were then rinsed with 6 ml hexane which was poured into the appropriate 50 ml tube. Tubes were shaken by hand, 10 ml H2 O was added, and tubes were shaken again. After phase separation, 2 ml of the upper (hexane) phase was removed to scintillation vials. Hexane was evaporated by a gentle air flow and the remaining lipids were resuspended in 10 ml Scinti Verse II. ^14 C was counted in a Packard liquid scintillation counter. Data are reported as CPM of ^14 C acetate incorporated into total lipids.

[8] = In vivo testing in rats: growth, feed conversion and carcass composition; set-up: species or system rat (male Charles River CD); details: in diet, dose equivalent to 20 ppm clenbuterol (clenbuterol: 10)
Description: Eighty intact, male Charles River CD rats, 75-90 g, were housed and maintained on rat chow and water ad libitum. After four days acclimation ten rats per group were randomized by weight to treatment and pen. Compounds to be tested were premixed and added to ground rat chow using doses equivalent to 20 ppm of clenbuterol on a molecular weight basis. It had previously been determined 10 ppm of clenbuterol was the minimum dose needed to give maximum improvements in gain and feed conversion. Therefore, the results of any compound tested should cause responses similar to clenbuterol if the compound has half or more the activity of clenbuterol.

[9] = Test 1, read-out: percent increase compared to control, glycerol production
[10] = Test 1, 0.01 μM, read-out: percent increase compared to control, glycerol production
[11] = read-out: percent increase compared to control, glycerol production, Test 1
[12] = read-out: percent increase compared to control, glycerol production, Test 2

For `Cc1ccc(C(=O)Oc2ccc(C(O)CNC(C)(C)C)cc2OC(=O)c2ccc(C)cc2)cc1` (centres unmarked) [Compound V, Bitolterol], the activation at 0.05 µM [1, 9] was 435%, the “percent increase compared to control, glycerol production” value ([1]; Test 1, 0.01 μM) was “inactive” and the “carcass fat (in words)” value ([2]; 0.5, 1.0 and 2.0 ppm in diet) was “did not reduce carcass fat”. The “rate of gain, feed conversion and carcass protein, dose response” value ([2]; 0.5, 1.0 and 2.0 ppm in diet) was “improved rate of gain, feed conversion and carcass protein in a dose-related manner”, the “improvement of rate of gain” value ([2]; 2.0 ppm in diet (highest dose), P 0.01) was 2.6% and the “improvement of feed conversion” value ([2]; 2.0 ppm in diet (highest dose), P 0.05) was 3.8%. The “improvement of carcass protein” value ([2]; 2.0 ppm in diet (highest dose), P 0.10) was 4.9%, the “responses compared with clenbuterol at 0.5 ppm” value ([2]; 2.0 ppm in diet) was “better than those observed with clenbuterol at 0.5 ppm” and the level of toxicity [3] was “very low level of toxicity”. For the same compound, the activation at 0.01 µM [4, 9] was 17%, the activation at 0.05 µM [4, 9] was 33% and the activation at 0.25 µM [4, 9] was 111%. The activation at 0.01 µM [5, 9] was 7%, the activation at 0.05 µM [5, 9] was 47% and the activation at 0.25 µM [5, 9] was 147%. The “activity in all species under consideration” value (“activity in all species” for short) [6] was “high activity in all species under consideration”, the level of activity ([6]; in vivo) was “high level of activity” and the inhibition at 0.01 µM [7] was 0%. For the same compound, the inhibition at 0.05 µM [7] was 34%, the inhibition at 0.25 µM [7] was 64.6% and the Gain ([8]; Test 1, control 7.3) was 7.3 g/day. The “Feed Intake” value ([8]; Test 1, control 18.6) was 18.7 g/day, the Weight ([8]; Test 1, control 191.8) was 192.2 g and the “Carcass Composition % of Change over Control, Fat” value ([8]; Test 1) was -4.3%. For the same compound, the “Carcass Composition % of Change over Control, Protein” value ([8]; Test 1) was 3.1%.
With `CC(C)(Cc1ccccc1)NCC(O)c1ccc(O)c(NS(C)(=O)=O)c1` (centres unmarked) [I, Zinterol] the activation at 0.01 µM [1, 10] was 730%, the activation at 0.05 µM [1, 9] was 960% and the activation at 0.01 µM [4, 9] was 90%. For the same compound, the activation at 0.05 µM [4, 9] was 129%, the activation at 0.25 µM [4, 9] was 281% and the activation at 0.01 µM [5, 9] was 87%. The activation at 0.05 µM [5, 9] was 100%, the activation at 0.25 µM [5, 9] was 53% and the “activity in all species” value [6] was “high activity in all species under consideration”. The inhibition at 0.01 µM [7] was 45.2%, the inhibition at 0.05 µM [7] was 61.3% and the inhibition at 0.25 µM [7] was 66%. For the same compound, the “antilipogenic activity relative to clenbuterol” value [7] was “greater than 125 times”, the “antilipogenic activity relative to isoproterenol” value [7] was “five times” and the Gain ([8]; Test 1, control 7.3) was 7.8 g/day. For the same compound, the “Feed Intake” value ([8]; Test 1, control 18.6) was 19.2 g/day, the Weight ([8]; Test 1, control 191.8) was 199.1 g and the “Carcass Composition % of Change over Control, Fat” value ([8]; Test 1) was -10.4%. For the same compound, the “Carcass Composition % of Change over Control, Protein” value ([8]; Test 1) was 7.3%.
`CC(CCc1ccccc1)NCC(O)c1ccc(N)nc1` (centres unmarked) [IV] gave an activation at 0.01 µM [1, 10] of 820%, an activation at 0.01 µM [4, 9] of 114% and an activation at 0.05 µM [4, 9] of 219%. For the same compound, the activation at 0.25 µM [4, 9] was 334%, the activation at 0.01 µM [5, 9] was 260% and the activation at 0.05 µM [5, 9] was 333%. For the same compound, the activation at 0.25 µM [5, 9] was 80%, the “activity in all species” value [6] was “high activity in all species under consideration” and the inhibition at 0.01 µM [7] was 33.7%. For the same compound, the inhibition at 0.05 µM [7] was 54.3%, the inhibition at 0.25 µM [7] was 63.2% and the “antilipogenic activity relative to clenbuterol” value [7] was “greater than 125 times”. For the same compound, the “antilipogenic activity relative to isoproterenol” value [7] was “five times”, the Gain ([8]; Test 2, control 7.5) was 8.4 g/day and the “Feed Intake” value ([8]; Test 2, control 19.3) was 20.7 g/day. For the same compound, the Weight ([8]; Test 2, control 202.3) was 214.7 g, the “Carcass Composition % of Change over Control, Fat” value ([8]; Test 2) was -16.1% and the “Carcass Composition % of Change over Control, Protein” value ([8]; Test 2) was 5.0%.
Compound `COc1ccc(CC(C)NCC(O)c2ccc(O)c(NC=O)c2)cc1` (centres unmarked) [IX, Formoterol] has an activation at 0.01 µM ([1]; read-out: percent increase compared to control, glycerol production, Test 1, 0.01 μM) of 675%, an activation at 0.05 µM [1, 11] of 695% and an activation at 0.01 µM [4, 11] of 42%. It also gave an activation at 0.05 µM [4, 11] of 91%, an activation at 0.25 µM [4, 11] of 258% and an activation at 0.01 µM [4, 12] of 16%. It also gave an activation at 0.05 µM [4, 12] of 70%, an activation at 0.25 µM [4, 12] of 145% and an activation at 0.01 µM [5, 11] of 207%. The activation at 0.05 µM [5, 11] was 267%, the activation at 0.25 µM [5, 11] was 187% and the activation at 0.01 µM [5, 12] was 340%. The activation at 0.05 µM [5, 12] was 600%, the activation at 0.25 µM [5, 12] was 844% and the “activity in all species” value [6] was “high activity in all species under consideration”. For the same compound, the Gain ([8]; Test 1, control 7.3) was 7.9 g/day, the “Feed Intake” value ([8]; Test 1, control 18.6) was 19.1 g/day and the Weight ([8]; Test 1, control 191.8) was 199.4 g. For the same compound, the “Carcass Composition % of Change over Control, Fat” value ([8]; Test 1) was -10.4% and the “Carcass Composition % of Change over Control, Protein” value ([8]; Test 1) was 10.6%.
For `C[C@H](CCc1ccccc1)NC[C@H](O)c1ccc(N)nc1` [α-R,1R compound], the “activity compared with the other optical isomers of compound IV” value ([6]; in vivo) was “significantly more active than the most active of the other isomers”.
